Assay results as given in the supplement of paper PMC10307832.

How the values were obtained:
Assay in all cases: relative viability (nuclei count vs DMSO), 5 days (fraction); higher = more cells survive
[1] = compound: CC1=C(CC(=O)O)c2cc(F)ccc2/C1=C\c1ccc([S+](C)[O-])cc1 [Sulindac] + CC1(C)CCC(c2ccc(Cl)cc2)=C(CN2CCN(c3ccc(C(=O)NS(=O)(=O)c4ccc(N[C@H](CCN5CCOCC5)CSc5ccccc5)c(S(=O)(=O)C(F)(F)F)c4)cc3)CC2)C1 [Navitoclax] (partner 0.5 µM)
Outline: (§1)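 Relative viability is defined as nuclei in treated wells over nuclei in vehicle wells. Duplicate plates were run and medians reported. Lung cancer cell lines in 1536-well plates were dosed by pin tool one day after seeding, with one drug or with a fixed anchor-drug dose plus five library-drug doses (not always all listed) in √10 steps, and nuclei were counted after 5 days.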

[2] = compound: CC1=C(CC(=O)O)c2cc(F)ccc2/C1=C\c1ccc([S+](C)[O-])cc1 [Sulindac] + CS(=O)(=O)CCNCc1ccc(-c2ccc3ncnc(Nc4ccc(OCc5cccc(F)c5)c(Cl)c4)c3c2)o1 [Lapatinib] (partner 2 µM)
Outline: as §1

[3] = compound: CN[C@@H]1C[C@H]2O[C@@](C)([C@@H]1OC)n1c3ccccc3c3c4c(c5c6ccccc6n2c5c31)C(=O)NC4 [Staurosporine] + O=C(CCCCCCC(=O)Nc1ccccc1)NO [Vorinostat] (partner 1 µM)
Outline: as §1

[4] = compound: O=c1[nH]cc(F)c(=O)[nH]1 [5-Fluorouracil] + Cc1nc(Nc2ncc(C(=O)Nc3c(C)cccc3Cl)s2)cc(N2CCN(CCO)CC2)n1 [Dasatinib] (partner 0.075 µM)
Outline: as §1

Cell Line	relative viability ([1]; first compound 0.08 µM)	relative viability ([1]; first compound 0.253 µM)	relative viability ([1]; first compound 0.8 µM)	relative viability ([1]; first compound 2.53 µM)	relative viability ([1]; first compound 8 µM)	relative viability ([2]; first compound 0.08 µM)	relative viability ([2]; first compound 0.253 µM)	relative viability ([2]; first compound 0.8 µM)	relative viability ([2]; first compound 2.53 µM)	relative viability ([2]; first compound 8 µM)	relative viability ([3]; first compound 0.005 µM)	relative viability ([3]; first compound 0.01581 µM)	relative viability ([3]; first compound 0.05 µM)	relative viability ([3]; first compound 0.1581 µM)	relative viability ([3]; first compound 0.5 µM)	relative viability ([4]; first compound 0.02 µM)	relative viability ([4]; first compound 0.2 µM)	relative viability ([4]; first compound 0.6325 µM)	relative viability ([4]; first compound 2 µM)
NCI-H1755	1.17	1.09	0.821	1.08	1.13	1.34	1.04	0.912	1.06	1.19	0.555	0.477	0.223	0.189	0.218	0.416	0.442	0.247	0.184
NCI-H1793	0.341	0.396	0.364	0.458	0.473	0.731	0.778	0.533	0.795	0.787	0.635	–	0.164	0.11	0.0792	0.378	0.413	0.368	0.313
NCI-H1915	0.873	0.808	0.78	0.742	0.832	1.24	1.09	0.842	0.913	1.1	0.452	0.178	0.148	0.0885	0.0702	0.305	0.31	0.303	0.266
NCI-H1944	0.958	1	1	1.07	1.23	0.882	0.906	0.696	0.842	0.885	0.469	0.267	0.282	0.12	0.118	0.21	0.225	0.138	0.127
NCI-H1975	1.26	1.24	–	1.21	1.25	1.27	1.03	–	0.952	1.01	0.297	0.232	0.218	0.146	0.105	0.363	0.387	0.307	0.231
NCI-H1993	1.13	0.917	0.871	0.933	0.88	0.837	0.801	0.757	0.77	0.805	0.588	0.275	0.475	0.344	0.232	0.581	0.566	0.503	0.487
NCI-H2009	1.21	1.2	1.29	1.18	1.34	1.02	0.949	0.87	0.946	1.05	0.576	0.185	0.166	0.109	0.0558	0.226	0.322	0.248	0.271
NCI-H2023	1.37	0.987	0.987	0.977	1.24	0.708	0.733	0.741	0.774	1.09	0.313	0.14	0.0786	0.0748	0.0408	0.542	0.185	0.102	0.0866
NCI-H2085	1.18	1.21	0.979	1.18	1.14	0.746	0.693	0.668	0.69	0.777	0.58	0.296	0.407	0.229	0.183	0.192	0.218	0.21	0.301
NCI-H2087	0.958	0.939	0.88	0.973	1.1	1.28	1.04	1.27	1.08	1.22	0.628	0.407	0.354	0.0753	0.0552	0.917	0.835	0.532	0.483
NCI-H2126	0.823	0.894	0.817	0.856	0.853	0.793	0.722	0.758	0.773	0.861	0.784	0.201	0.426	0.233	–	0.552	0.315	0.244	0.212
NCI-H2170	0.564	0.638	0.495	0.71	0.6	0.249	0.282	0.251	0.272	0.286	0.875	–	0.488	0.0663	0.0848	0.566	0.53	0.393	0.28
NCI-H2228	0.937	0.967	0.839	1.46	1.01	1.4	1.3	0.575	1	0.917	0.449	0.188	0.126	0.0779	0.0804	0.562	0.457	0.349	0.268
NCI-H2347	0.821	0.803	0.641	0.725	0.862	0.986	0.95	0.694	0.85	1.06	0.409	0.378	0.274	0.264	0.228	0.334	0.328	0.295	0.224
NCI-H2405	0.934	0.9	0.783	0.859	1.11	1.24	1.11	0.969	1.02	1.39	0.199	0.147	0.131	0.0894	0.0973	0.217	0.231	0.197	0.224
NCI-H3122	0.913	0.999	1.01	0.992	1.05	1.05	0.978	1.03	0.966	1.03	1.04	–	0.549	–	0.131	0.917	0.76	0.32	0.205
PC-3 [JPC-3]	0.971	0.758	0.786	0.762	0.752	0.476	0.453	0.422	0.457	0.449	0.351	0.306	0.396	0.297	0.376	0.979	1.08	0.946	0.709
PC-14	0.933	1.1	–	1.07	1.14	0.349	0.379	0.315	0.276	0.311	0.267	0.116	0.0757	0.047	0.0287	0.247	0.268	0.274	0.188
RERF-LC-KJ	1.23	0.983	0.797	0.749	1.11	0.888	0.934	0.685	0.862	0.943	0.599	0.403	0.302	0.197	0.224	0.908	1.01	0.777	0.571
SK-LU-1	0.96	0.875	0.694	0.84	1.54	0.981	0.918	–	0.839	0.9	0.265	0.206	0.179	0.164	0.148	0.189	0.182	0.195	0.166
SK-MES-1	1.43	1.3	1.31	1.27	1.45	0.517	0.497	0.362	0.372	0.486	0.47	0.27	0.18	0.154	0.127	0.293	0.257	0.227	0.218
SW 1573	–	1.02	–	1.09	1.2	1.11	1.3	1.02	1.1	1.28	0.811	0.391	0.152	0.0813	0.0557	0.58	0.402	0.472	0.259
